In patent publication US10253039B2, “Inhibitors of bacterial DNA gyrase with efficacy against gram-negative bacteria” (priority 2014, dated 2019):
Values after ≈ are worked out from the molar mass of the structure shown.

Experiments:
Assay type in all cases: cell-based
Shigella flexneri = experiment: MIC, 20-strain panel; conditions: G: Shigella flexneri
Method: (§1) A microdilution method in 96-well plates was used and the MIC protocol established by the Clinical Laboratory Standards Institute was followed. From a growing subculture, a 1:10000 inoculum of each strain in Luria-Bertani media was prepared and aliquoted 100 μL in 4 columns of wells, except for the top row wells, which contained 200 μL of inoculum. A solution of gyramide C2 was aliquoted into 3 of the wells containing 200 μL and DMSO was added to the 4th well. The liquid in each of wells was mixed with a multi-channel pipet and 100 μL was transferred to the next well and mixed. The 2-fold dilution was continued down the 96-well plate until 100 μL was left, which was discarded. The plates were incubated at 37° C. with shaking for 16-18 hours. The MIC was determined as the lowest concentration that inhibited growth and had no turbidity by visual inspection.
(§2) Minimum inhibitory concentrations of various gyramide compounds against 20 strains of bacteria were determined using the procedure described above.

[1] = system: Staphylococcus epidermidis; experiment: MIC, 20-strain panel
Method: as §1, §2

[2] = system: Klebsiella pneumoniae subsp. pneumoniae; experiment: MIC, 20-strain panel; conditions: E: Klebsiella pneumoniae subsp. pneumoniae
Method: as §1, §2

E. coli JW5503 (deltolC) = experiment: MIC, 20-strain panel; conditions: Escherichia coli, C: E. coli JW5503 (deltolC)
Method: as §1, §2

[3] = system: Salmonella enterica subsp. enterica typhimurium; experiment: MIC, 20-strain panel; conditions: F: Salmonella enterica subsp. enterica Typhimurium
Method: as §1, §2

[4] = system: Staphylococcus aureus subsp. aureus; experiment: MIC, 20-strain panel; conditions: H: Staphylococcus aureus subsp. aureus, read-out: MIC
Method: as §1, §2

E. coli MG1655 = experiment: MIC, 20-strain panel; conditions: Escherichia coli, MG1655, A: E. coli MG1655; read-out: MIC
Method: as §1, §2

Streptococcus agalactiae = experiment: MIC, 20-strain panel
Method: as §1, §2

Streptococcus pyogenes = experiment: MIC, 20-strain panel
Method: as §1, §2

[5] = system: Staphylococcus saprophyticus subsp. saprophyticus; experiment: MIC, 20-strain panel
Method: as §1, §2

E. coli BW25113 = experiment: MIC, microdilution in 96-well plates; conditions: Escherichia coli, BW25113, B: E. coli BW25113; read-out: MIC
Method: as §1, §2

Edwardsiella tarda = experiment: MIC, microdilution in 96-well plates; conditions: D: Edwardsiella tarda
Method: as §1, §2

Compound | MIC (Shigella flexneri) [µg/mL] | MIC [1] [µg/mL] | MIC [2] [µg/mL] | MIC (E. coli JW5503 (deltolC)) [µg/mL] | MIC [3] [µg/mL] | MIC [4] [µg/mL] | MIC (E. coli MG1655) [µg/mL] | MIC (Streptococcus agalactiae) [µg/mL] | MIC (Streptococcus pyogenes) [µg/mL] | MIC [5] [µg/mL] | MIC (E. coli BW25113) [µg/mL] | MIC (Edwardsiella tarda) [µg/mL]
N#Cc1cccc(S(=O)(=O)N[C@@H]2CCN(Cc3ccc(-c4cncnc4)cc3)C2)c1 [Compound 22] | > 8 | > 8 | > 8 | 8 (≈ 19.1 µM) | > 8 | > 8 | > 8 | > 8 | > 8 | > 8 | > 8 | > 8
CC(C)(C)Oc1ccc(CN2CC[C@@H](NS(=O)(=O)c3cccc(C(F)(F)F)c3)C2)cc1 [Compound 23] | > 8 | > 8 | > 8 | 0.5 (≈ 1.1 µM) | > 8 | > 8 | > 8 | > 8 | > 8 | > 8 | > 8 | > 8
N#Cc1cccc(S(=O)(=O)N[C@@H]2CCN(Cc3ccc(-c4cccc(Cl)c4)cc3)C2)c1 [Compound 24] | > 8 | > 8 | > 8 | 4 (≈ 8.85 µM) | > 8 | > 8 | > 8 | > 8 | > 8 | > 8 | > 8 | > 8
N#Cc1cccc(S(=O)(=O)N[C@@H]2CCN(Cc3ccc(-c4cccs4)cc3)C2)c1 [Compound 25] | > 8 | > 8 | > 8 | 0.25 (≈ 0.59 µM) | 4 (≈ 9.44 µM) | > 8 | ~8 (≈ 18.9 µM) | > 8 | > 8 | > 8 | ~8 (≈ 18.9 µM) | > 8
CC(C)(C)Oc1ccc(CN2CC[C@@H](NS(=O)(=O)c3cccc(OC(F)(F)F)c3)C2)cc1 [Compound 26] | > 8 | > 8 | > 8 | 0.5 (≈ 1.06 µM) | > 8 | > 8 | > 8 | > 8 | > 8 | > 8 | > 8 | > 8
O=S(=O)(N[C@@H]1CCN(Cc2ccc(-c3ccccc3)cc2)C1)c1cccc(C(F)(F)F)c1 [Compound 27] | > 8 | 8 (≈ 17.4 µM) | > 8 | 0.5 (≈ 1.09 µM) | 4 (≈ 8.69 µM) | > 8 | > 8 | > 8 | 8 (≈ 17.4 µM) | > 8 | > 8 | > 8
O=S(=O)(N[C@@H]1CCN(Cc2ccc(-c3cccc(Cl)c3)cc2)C1)c1cccc(OC(F)(F)F)c1 [Compound 28] | > 8 | 2 (≈ 3.91 µM) | > 8 | > 8 | > 8 | > 8 | > 8 | > 8 | ~8 (≈ 15.7 µM) | > 8 | > 8 | > 8
CC(C)Oc1ccc(CN2CC[C@@H](NS(=O)(=O)c3cc(S(=O)(=O)c4ccccc4)cs3)C2)cc1 [Compound 29] | > 8 | > 8 | > 8 | > 8 | > 8 | > 8 | > 8 | > 8 | > 8 | > 8 | > 8 | > 8
Cc1c(CN2CC[C@@H](NS(=O)(=O)c3cccc(C#N)c3)C2)cnn1-c1ccccc1 [Compound 30] | > 8 | > 8 | > 8 | > 8 | > 8 | > 8 | > 8 | > 8 | > 8 | > 8 | > 8 | > 8
CSc1ccc(CN2CC[C@@H](NS(=O)(=O)c3cccc(C#N)c3)C2)cc1 [Compound 31] | > 8 | > 8 | > 8 | ~8 (≈ 20.6 µM) | > 8 | > 8 | > 8 | > 8 | > 8 | > 8 | > 8 | > 8
O=S(=O)(N[C@@H]1CCN(Cc2ccc(-c3cccs3)cc2)C1)c1cccc(C(F)(F)F)c1 [Compound 32] | > 8 | 8 (≈ 17.1 µM) | > 8 | 1 (≈ 2.14 µM) | 8 (≈ 17.1 µM) | > 8 | > 8 | > 8 | 8 (≈ 17.1 µM) | > 8 | > 8 | > 8
O=S(=O)(N[C@@H]1CCN(Cc2ccc(-n3ccnn3)cc2)C1)c1cccc(OC(F)(F)F)c1 [Compound 33] | > 8 | > 8 | > 8 | > 8 | > 8 | > 8 | > 8 | > 8 | > 8 | > 8 | > 8 | > 8
N#Cc1cccc(S(=O)(=O)N[C@@H]2CCN(Cc3nc(-c4ccccc4)cs3)C2)c1 [Compound 34] | > 8 | > 8 | > 8 | > 8 | > 8 | > 8 | > 8 | > 8 | > 8 | > 8 | > 8 | > 8
O=S(=O)(N[C@@H]1CCN(Cc2ccc(-n3cccn3)cc2)C1)c1cccc(C(F)(F)F)c1 [Compound 35] | > 8 | > 8 | > 8 | 1 (≈ 2.22 µM) | > 8 | > 8 | > 8 | > 8 | > 8 | > 8 | > 8 | > 8
O=S(=O)(N[C@@H]1CCN(Cc2ccc(-c3nccs3)cc2)C1)c1cccc(OC(F)(F)F)c1 [Compound 36] | > 8 | > 8 | > 8 | 2 (≈ 4.14 µM) | > 8 | > 8 | > 8 | > 8 | > 8 | > 8 | > 8 | > 8
O=S(=O)(N[C@@H]1CCN(Cc2ccc(-c3ccccc3)cc2)C1)c1cc(S(=O)(=O)c2ccccc2)cs1 [Compound 37] | > 8 | > 8 | > 8 | > 8 | > 8 | > 8 | > 8 | > 8 | > 8 | > 8 | > 8 | > 8
O=S(=O)(N[C@@H]1CCN(Cc2ccc(OC3CCOCC3)cc2)C1)c1cccc(C(F)(F)F)c1 [Compound 38] | > 8 | > 8 | > 8 | 1 (≈ 2.06 µM) | > 8 | > 8 | > 8 | > 8 | > 8 | > 8 | > 8 | > 8
O=S(=O)(N[C@@H]1CCN(Cc2ccc(OC3CCOCC3)cc2)C1)c1cccc(OC(F)(F)F)c1 [Compound 39] | > 8 | > 8 | > 8 | 1 (≈ 2 µM) | > 8 | > 8 | > 8 | > 8 | > 8 | > 8 | > 8 | > 8
